Experimental data as given in article PMC7762498, “Demethoxycurcumin analogue DMC-BH exhibits potent anticancer effects on orthotopic glioblastomas” (Aging (Albany NY), 2020).

Columns and labels:
[1] = system: glioblastoma multiforme (GBM) patient derived tumors; assay: Patient-derived tumor xenograft (PDTX) model; format: in vivo, mice; conditions: B-NDG mice; DMC-BH 7.5, 15 or 30 mg/kg, TMZ 20 mg/kg
Excerpt: In recent years, PDTX models have been used to mimic human tumors. These models are more clinically relevant than cell line-based xenograft models. Thus, we performed an in vivo study in a PDTX tumor model by implanting human glioma samples from a patient donor into B-NDG mice (Figure 7A).
Figure 7 In vivo anti-tumor activity of DMC-BH in the PDTX tumor model. (A) A scheme illustrating the process of creating the patient-derived tumor model. (B) Tumor growth curves of mice after treatment with 7.5 mg/kg, 15 mg/kg or 30 mg/kg DMC-BH or 20 mg/kg TMZ. (C) Average tumor weight at day 21 after different treatments. (D) Quantification of the Ki67-positive area in different treatment groups. (E) Representative H&E-stained tumor slices and Ki67 immunofluorescence labeled tumor tissue sections from different treatments groups. The data are shown as mean ± SD (n = 6).
Surgically resected human glioma tissue was obtained from a cancer patient (#0407002) following an approved Nanjing Medicinal University Institutional Review Board protocol. Within 2 hours of surgical resection, tumor tissues were cut into 1-2 mm fragments and implanted into SCID mice (B-NDG, 6 weeks old, female) using a surgical procedure approved by Nanjing Medicinal University Institutional Animal Care and Use committee. After surgery, tumor growth in the mice was monitored by palpating the abdomen twice per week. Tumors grew to 5-10 mm in diameter in about 8-10 weeks. The SCID mice bearing PDTX tumors were sacrificed, and tumor fragments of 1 to 2 mm in size were implanted into 6-week-old female SCID mice. Over 60% of the mice experienced tumor growth in approximately 6 weeks.

U87 cell line = assay: Subcutaneous human glioma xenograft in SCID mice; format: in vivo
Excerpt: To examine the anti-glioma effects of DMC-BH in vivo, a human glioma-SCID (severe combined immunodeficient) mouse model was established using the U87 cell line. […] The tumor volumes for the control, TMZ, DMC, and DMC-BH mice at day 21 were 1514 mm^3, 587 mm^3, 876 mm^3 and 570 mm^3, respectively. […] As shown in the Kaplan-Meier curves, the median survival was 15, 27, 19 and 35 days for the control, TMZ, DMC and DMC-BH groups, respectively (Figure 3B).
Figure 3 DMC-BH inhibited U87 glioma cell growth in vivo. Subcutaneous tumors generated from U87 cells were allowed to reach a volume of 150-200 mm^3 and were treated with 20 mg/kg TMZ, DMC or DMC-BH for 21 days. (A) Tumor volume was recorded according to treatment group at the indicated day. (B) The survival of brain tumor-bearing mice was recorded and represented in a Kaplan-Meier plot.
1-[4-Hydroxy-3-(pyrrolidin-1-ylmethyl) phenyl]-7-(4-hydroxy-3-methoxyphenyl) hepta-1,6-diene-3,5-dione, named DMC-BH, was constructed by our lab. DMC was obtained from Sigma-Aldrich (St. Louis, MO). To test the anti-glioma effect of DMC-BH in vivo, a xenograft model of human glioma was established. Four-week-old male SCID mice were purchased from Vital River Laboratory Animal Technology Co., Ltd. (Beijing, China). After a 1-week acclimatization, SCID mice were injected subcutaneously in the right flank with 6 × 10^5 […] glioma cells resuspended in 50 μL DMEM media. Treatment was initiated when the subcutaneous tumors reached an average size of 150 mm^3 to 200 mm^3. Mice received intraperitoneal injection of DMC (20 mg/kg/day), DMC-BH (20 mg/kg/day), TMZ (20 mg/kg/day) or vehicle as a control. Tumor diameter was measured every 2 days with calipers, and the tumor volume was calculated (length × width × height × 0.5). All experiments were carried out in keeping with the procedures and protocols of the Animal Ethics Committee of the First People's Hospital of Kunshan.

In the case of `Cn1nnc2c(C(N)=O)ncn2c1=O` [TMZ, temozolomide], the “tumor growth in PDTX model” value [1] is reported as “significant tumor regression”, the “tumor volume at day 21” value (U87 cell line; U87 subcutaneous xenograft, 20 mg/kg/day intraperitoneal, 21 days, control 1514 mm^3) is reported as 587 mm^3 and the median survival (U87 cell line; U87 xenograft, 20 mg/kg, control 15 days) is reported as 27 days.
